The source of these data is US10308643B2, “Heterocyclic compound” (Takeda Pharmaceutical Company Limited, priority 2015, dated 2019).

Molecules are shown by their SMILES.

What all share (assay type): biochemical
For one assay, the target named is T1, HDAC6 enzyme (Homo sapiens, UniProt Q9UBN7).
T1 construct: transducing full length HDAC1 and HDAC6 genes into Sf-9 insect cells; GST; purchased SignalChem; host or cells: Sf-9 insect cells
T1 sequence (Q9UBN7 1-1215): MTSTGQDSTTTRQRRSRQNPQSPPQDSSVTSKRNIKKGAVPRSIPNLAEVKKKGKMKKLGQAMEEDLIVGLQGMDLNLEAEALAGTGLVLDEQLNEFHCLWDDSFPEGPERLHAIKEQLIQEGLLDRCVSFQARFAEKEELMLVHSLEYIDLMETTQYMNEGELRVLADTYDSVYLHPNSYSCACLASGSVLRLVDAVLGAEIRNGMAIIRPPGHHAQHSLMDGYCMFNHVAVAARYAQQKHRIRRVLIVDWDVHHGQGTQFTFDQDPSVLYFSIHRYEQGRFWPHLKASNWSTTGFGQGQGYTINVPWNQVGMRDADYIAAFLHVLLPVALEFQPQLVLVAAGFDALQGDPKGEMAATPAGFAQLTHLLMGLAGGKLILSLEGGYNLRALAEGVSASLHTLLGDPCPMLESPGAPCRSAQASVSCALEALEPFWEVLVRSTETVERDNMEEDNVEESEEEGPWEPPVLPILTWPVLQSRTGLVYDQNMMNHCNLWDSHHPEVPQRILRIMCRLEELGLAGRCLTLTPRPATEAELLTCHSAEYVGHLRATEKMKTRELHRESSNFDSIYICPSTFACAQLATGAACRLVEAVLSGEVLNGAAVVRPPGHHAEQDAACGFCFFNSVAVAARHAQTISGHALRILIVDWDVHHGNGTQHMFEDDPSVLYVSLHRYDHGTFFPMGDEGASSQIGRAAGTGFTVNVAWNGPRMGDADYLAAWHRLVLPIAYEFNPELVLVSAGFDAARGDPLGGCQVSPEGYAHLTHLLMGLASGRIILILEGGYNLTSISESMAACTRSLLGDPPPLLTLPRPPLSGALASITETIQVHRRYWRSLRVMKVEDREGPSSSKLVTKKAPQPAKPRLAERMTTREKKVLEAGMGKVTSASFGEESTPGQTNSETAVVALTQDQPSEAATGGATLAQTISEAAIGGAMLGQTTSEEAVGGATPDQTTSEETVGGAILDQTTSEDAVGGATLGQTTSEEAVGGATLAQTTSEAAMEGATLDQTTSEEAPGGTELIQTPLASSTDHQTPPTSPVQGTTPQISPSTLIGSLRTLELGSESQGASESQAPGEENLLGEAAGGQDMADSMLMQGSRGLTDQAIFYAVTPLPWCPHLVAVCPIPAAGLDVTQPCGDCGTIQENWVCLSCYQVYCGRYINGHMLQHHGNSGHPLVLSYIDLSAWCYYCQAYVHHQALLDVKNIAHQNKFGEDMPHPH
Briefly: HDAC1/6 Enzyme Inhibitory Assay (HDAC-Glo I/II Assay kit), HDAC6. The note with it: 1 μM test compound, wells without enzyme = 100% inhibition; for inhibition at 1 µM: read-out: HDAC6 inhibitory rate (%) (1 μM). How it is done:
(§1) HDAC1/6 Enzyme Inhibitory Assay
(§2) HDAC1 enzyme and HDAC6 enzyme each prepared by transducing full length HDAC1 and HDAC6 genes into Sf-9 insect cells and purifying by GST affinity column were purchased from SignalChem. Using these enzymes, HDAC1 and/or HDAC6 enzyme inhibitory activities of the compound of the present invention were evaluated. Enzymes were used after preserved at −70° C. HDAC1 or HDAC6 enzyme inhibitory activity of the compound of the present invention was measured using HDAC-Glo™ I/II Assay kit (Promega) according to the following experimental method. The test compound diluted with assay buffer (24 mM Tris-HCl (pH 7.5), 1 mM MgCl2, 0.35 mM KCl, 135 mM NaCl, 0.6 mM Glutathione, 0.01% Tween-20) was added to a 384-well plate by each 2 μL. Then, HDAC1 or HDAC6 enzyme solution diluted with assay buffer was added thereto by each 4 μL, and the plate was incubated at room temperature for 60 min. After incubated, HDAC substrate-Developer solution prepared according to Promega protocol attached to the assay kit was added to the 384-well plate by each 2 μL, and the enzyme reaction was started. After reacting at room temperature for 20 min, luminescence level was measured using plate reader Envision (PerkinElmer). The inhibitory activity of each compound was calculated as a relative activity value when luminescence level in wells without enzyme is considered as 100% inhibition.

Another assay has as its target T2, HDAC1 enzyme (Homo sapiens, UniProt Q13547).
T2 construct: transducing full length HDAC1 and HDAC6 genes into Sf-9 insect cells; GST; purchased SignalChem; host or cells: Sf-9 insect cells
Put plainly: HDAC1/6 Enzyme Inhibitory Assay (HDAC-Glo I/II Assay kit), HDAC1. The note with it: 1 μM test compound, wells without enzyme = 100% inhibition; for inhibition at 1 µM: read-out: HDAC1 inhibitory rate (%) (1 μM). How it is done: as §1, §2

In another assay the target is T3, HDAC9 enzyme (Homo sapiens, UniProt Q9UKV0).
T3 construct: transducing full length HDAC9 gene into Sf-9 insect cells; made in house; host or cells: Sf-9 insect cells
T3 sequence (Q9UKV0 whole entry, species assumed): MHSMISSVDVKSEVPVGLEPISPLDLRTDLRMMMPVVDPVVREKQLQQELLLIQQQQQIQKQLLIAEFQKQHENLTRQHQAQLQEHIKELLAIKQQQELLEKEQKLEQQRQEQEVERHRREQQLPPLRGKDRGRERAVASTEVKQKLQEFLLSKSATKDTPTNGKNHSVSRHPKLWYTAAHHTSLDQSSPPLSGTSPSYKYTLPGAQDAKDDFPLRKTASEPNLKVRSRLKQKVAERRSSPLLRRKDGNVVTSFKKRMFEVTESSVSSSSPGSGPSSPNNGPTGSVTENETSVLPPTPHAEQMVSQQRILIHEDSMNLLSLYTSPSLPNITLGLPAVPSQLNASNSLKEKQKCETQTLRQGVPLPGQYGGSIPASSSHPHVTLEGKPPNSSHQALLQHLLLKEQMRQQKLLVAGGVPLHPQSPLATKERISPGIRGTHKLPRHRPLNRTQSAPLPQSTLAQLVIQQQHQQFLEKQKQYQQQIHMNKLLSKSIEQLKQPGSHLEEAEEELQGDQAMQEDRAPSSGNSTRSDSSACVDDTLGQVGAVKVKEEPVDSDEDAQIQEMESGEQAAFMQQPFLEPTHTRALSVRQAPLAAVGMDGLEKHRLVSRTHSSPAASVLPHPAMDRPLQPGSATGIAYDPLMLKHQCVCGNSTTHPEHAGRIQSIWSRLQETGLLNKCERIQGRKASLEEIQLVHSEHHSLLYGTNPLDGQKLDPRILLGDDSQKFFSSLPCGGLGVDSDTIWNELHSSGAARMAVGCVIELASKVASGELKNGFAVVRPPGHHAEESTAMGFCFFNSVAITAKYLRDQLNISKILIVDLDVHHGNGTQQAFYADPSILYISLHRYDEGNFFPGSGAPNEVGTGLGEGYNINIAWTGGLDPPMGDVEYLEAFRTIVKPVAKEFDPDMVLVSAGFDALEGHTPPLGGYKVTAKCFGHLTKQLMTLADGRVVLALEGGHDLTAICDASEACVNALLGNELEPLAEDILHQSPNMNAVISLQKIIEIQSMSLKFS
Briefly: HDAC9 Enzyme Inhibitory Assay (HDAC-Glo class IIa). The following applies: 1 μM test compound, wells without enzyme = 100% inhibition; for inhibition at 1 µM: read-out: HDAC9 inhibitory rate (%) (1 μM). How it is done: HDAC9 Enzyme Inhibitory Assay
Enzyme was prepared by transducing full length HDAC9 gene into Sf-9 insect cells and purifying by Ni-NTA affinity column, and HDAC9 enzyme inhibitory activity was evaluated. Enzymes were used after preserved at −70° C. HDAC9 enzyme inhibitory activity of the test compound was measured using HDAC-Glo class IIa (Promega) according to the following experimental method. The test compound diluted with assay buffer (24 mM Tris-HCl (pH 7.5), 1 mM MgCl2, 0.35 mM KCl, 135 mM NaCl, 0.6 mM Glutathione, 0.01% Tween-20) was added to a 384-well plate by each 2 μL. Then, HDAC9 enzyme solution diluted with assay buffer was added thereto by each 2 μL, and the plate was incubated at room temperature for 60 min. After incubated, HDAC substrate-Developer solution prepared according to Promega protocol was added to the 384-well plate by each 4 μL, and the enzyme reaction was started. After reacting at room temperature for 20 min, luminescence level was measured using plate reader Envision (PerkinElmer). The inhibitory activity of each compound was calculated as a relative activity value when luminescence level in wells without enzyme is considered as 100% inhibition.

T2 sequence (Q13547 whole entry): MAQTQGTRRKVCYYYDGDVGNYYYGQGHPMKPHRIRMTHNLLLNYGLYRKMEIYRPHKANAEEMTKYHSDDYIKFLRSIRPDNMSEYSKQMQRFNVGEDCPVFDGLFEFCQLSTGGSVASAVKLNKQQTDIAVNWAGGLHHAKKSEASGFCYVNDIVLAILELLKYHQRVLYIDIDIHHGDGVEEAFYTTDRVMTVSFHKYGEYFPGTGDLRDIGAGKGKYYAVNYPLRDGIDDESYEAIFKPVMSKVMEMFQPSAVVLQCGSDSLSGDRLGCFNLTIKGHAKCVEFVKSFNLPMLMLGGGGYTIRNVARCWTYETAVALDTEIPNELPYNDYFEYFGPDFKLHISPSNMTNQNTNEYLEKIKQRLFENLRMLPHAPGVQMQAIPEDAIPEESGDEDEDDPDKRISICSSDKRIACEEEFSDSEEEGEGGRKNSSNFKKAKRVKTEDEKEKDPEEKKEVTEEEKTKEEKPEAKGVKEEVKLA

As for `O=C1c2cc(-c3noc(C(F)(F)F)n3)ccc2CN1[C@@H]1CCCC[C@H]1c1ccccc1` (relative stereo) [Example 17, trans-2-(2-phenylcyclohexyl)-6-(5-(trifluoromethyl)-1,2,4-oxadiazol-3-yl)isoindolin-1-one], the inhibition at 1 µM on HDAC6 enzyme came out at 98%; at HDAC1 enzyme, 52%; at HDAC9 enzyme, 85%.

For the molecule `O=C1c2cc(-c3noc(C(F)(F)F)n3)ccc2CN1[C@@H]1CCOC[C@H]1c1ccccc1` (relative stereo) [Example 34, trans-2-(3-phenyltetrahydro-2H-pyran-4-yl)-6-(5-(trifluoromethyl)-1,2,4-oxadiazol-3-yl)isoindolin-1-one], the inhibition at 1 µM on HDAC6 enzyme is 99%; at HDAC9 enzyme it was 96%. In addition, the “HDAC1 inhibitory rate (%) (1 μM)” value on HDAC1 enzyme worked out at 90%.

On to `O=C1c2cc(-c3noc(C(F)(F)F)n3)ccc2CN1[C@@H]1CCOC[C@H]1c1ccccc1` (relative stereo) [Example 35, trans-2-(3-phenyltetrahydro-2H-pyran-4-yl)-6-(5-(trifluoromethyl)-1,2,4-oxadiazol-3-yl)isoindolin-1-one], for which, at HDAC6 enzyme, the “HDAC6 inhibitory rate (%) (1 μM)” value amounted to 99%. Moreover, the “HDAC1 inhibitory rate (%) (1 μM)” value at HDAC1 enzyme came to 50%. Also, at HDAC9 enzyme (1 µM), the “HDAC9 inhibitory rate (%) (1 μM)” value turned out to be 91%.

With `O=C1c2cc(-c3noc(C(F)(F)F)n3)ccc2CN1[C@@H]1CCNC[C@H]1c1ccc(F)cc1` (relative stereo) [Example 45, 2-(trans-3-(4-fluorophenyl)piperidin-4-yl)-6-(5-(trifluoromethyl)-1,2,4-oxadiazol-3-yl)isoindolin-1-one], the inhibition at 1 µM on HDAC6 enzyme is 100%; at HDAC1 enzyme, 94%; on HDAC9 enzyme, 99%.

Turning to `O=C1c2cc(-c3noc(C(F)(F)F)n3)ccc2CN1[C@@H]1CCNC[C@H]1c1ccc(F)c(F)c1` (relative stereo) [Example 46, 2-(trans-3-(3,4-difluorophenyl)piperidin-4-yl)-6-(5-(trifluoromethyl)-1,2,4-oxadiazol-3-yl)isoindolin-1-one], the inhibition at 1 µM at HDAC6 enzyme stood at 99%; on HDAC1 enzyme it was 94%; on HDAC9 enzyme it was 99%.

Turning to `Cc1ccc([C@@H]2CNCC[C@H]2N2Cc3ccc(-c4noc(C(F)(F)F)n4)cc3C2=O)cc1` (relative stereo) [Example 47, 2-(trans-3-(4-methylphenyl)piperidin-4-yl)-6-(5-(trifluoromethyl)-1,2,4-oxadiazol-3-yl)isoindolin-1-one], the inhibition at 1 µM came to 95% on HDAC6 enzyme, 90% on HDAC1 enzyme and 99% at HDAC9 enzyme.

Turning to `Cc1ccc([C@@H]2CNCC[C@H]2N2Cc3ccc(-c4noc(C(F)(F)F)n4)cc3C2=O)cc1F` (relative stereo) [Example 48, 2-(trans-3-(3-fluoro-4-methylphenyl)piperidin-4-yl)-6-(5-(trifluoromethyl)-1,2,4-oxadiazol-3-yl)isoindolin-1-one], the inhibition at 1 µM at HDAC6 enzyme worked out at 99%; on HDAC1 enzyme it was 90%; at HDAC9 enzyme it was 98%.

For `Cc1cc([C@@H]2CNCC[C@H]2N2Cc3ccc(-c4noc(C(F)(F)F)n4)cc3C2=O)ccc1F` (relative stereo) [Example 49, 2-(trans-3-(4-fluoro-3-methylphenyl)piperidin-4-yl)-6-(5-(trifluoromethyl)-1,2,4-oxadiazol-3-yl)isoindolin-1-one], the inhibition at 1 µM is 100% on HDAC6 enzyme, 96% on HDAC1 enzyme and 99% at HDAC9 enzyme.

In the case of `Cc1cc(F)ccc1[C@@H]1CNCC[C@H]1N1Cc2ccc(-c3noc(C(F)(F)F)n3)cc2C1=O` (relative stereo) [Example 50, 2-(trans-3-(4-fluoro-2-methylphenyl)piperidin-4-yl)-6-(5-(trifluoromethyl)-1,2,4-oxadiazol-3-yl)isoindolin-1-one], the inhibition at 1 µM on HDAC6 enzyme was 98%; at HDAC1 enzyme, 93%; at HDAC9 enzyme it was 99%.

Regarding `O=C1c2cc(-c3noc(C(F)(F)F)n3)ccc2CN1[C@@H]1CCNC[C@H]1c1ccc(Cl)c(F)c1` (relative stereo) [Example 52, 2-(trans-3-(4-chloro-3-fluorophenyl)piperidin-4-yl)-6-(5-(trifluoromethyl)-1,2,4-oxadiazol-3-yl)isoindolin-1-one], the inhibition at 1 µM at HDAC6 enzyme is 97%; on HDAC1 enzyme, 97%; at HDAC9 enzyme, 99%.

With `O=C1c2cc(-c3noc(C(F)(F)F)n3)ccc2CN1[C@@H]1CCNC[C@H]1c1cccc(Cl)c1` (relative stereo) [Example 53, 2-(trans-3-(3-chlorophenyl)piperidin-4-yl)-6-(5-(trifluoromethyl)-1,2,4-oxadiazol-3-yl)isoindolin-1-one], the inhibition at 1 µM on HDAC6 enzyme is 97%; at HDAC1 enzyme it was 98%; at HDAC9 enzyme it was 99%.

On to `O=C1c2cc(-c3noc(C(F)(F)F)n3)ccc2CN1[C@@H]1CCNC[C@H]1c1ccc(F)c(Cl)c1` (relative stereo) [Example 54, 2-(trans-3-(3-chloro-4-fluorophenyl)piperidin-4-yl)-6-(5-(trifluoromethyl)-1,2,4-oxadiazol-3-yl)isoindolin-1-one], for which the values for the inhibition at 1 µM at HDAC6 enzyme, on HDAC1 enzyme and on HDAC9 enzyme were 100%, 93% and 99%, respectively.

With `COc1ccc([C@@H]2CNCC[C@H]2N2Cc3ccc(-c4noc(C(F)(F)F)n4)cc3C2=O)cc1` (relative stereo) [Example 55, 2-(trans-3-(4-methoxyphenyl)piperidin-4-yl)-6-(5-(trifluoromethyl)-1,2,4-oxadiazol-3-yl)isoindolin-1-one], the results for the inhibition at 1 µM at HDAC6 enzyme, at HDAC1 enzyme and at HDAC9 enzyme were 96%, 95% and 99%, respectively.

Turning to `Cc1ccc([C@@H]2CNCC[C@H]2N2Cc3ccc(-c4noc(C(F)(F)F)n4)cc3C2=O)cc1Cl` (relative stereo) [Example 56, 2-(trans-3-(3-chloro-4-methylphenyl)piperidin-4-yl)-6-(5-(trifluoromethyl)-1,2,4-oxadiazol-3-yl)isoindolin-1-one], the values for the inhibition at 1 µM at HDAC6 enzyme, at HDAC1 enzyme and on HDAC9 enzyme were 97%, 93% and 99%, respectively.
